Read-outs that look alike come from different tables or passages of the source.
What was measured:
[1] = test system: tracheal smooth muscle from guinea pigs (contraction induced by 3 × 10^−6 mol/L of CCh); assay: Antagonism in vitro of contraction of isolated tracheal smooth muscle from guinea pigs induced by carbachol (CCh); format: cell-based, guinea pig
From the text: Preparation of the Isolated Tracheal Smooth Muscle Specimen from a Guinea Pig:
After a guinea pig was narcotized with urethane, the trachea between the throat and carina of the guinea pig was taken out rapidly, and placed in the Krebs-Henseleit (K-H) solution (composition (g/L): NaCl 6.92, KCl 0.35, CaCl2 0.28, KH2PO4 0.16, MgSO4.7H2O 0.4568, NaHCO3 2.1, Glucose 2.0) with a mixture gas of 5% CO2 and 95% O2 purged. After loose connective tissues and fats around the trachea were separated, the trachea was cut into trachea pieces having a width of about 3 mm and a length of 20 mm by a surgical scissor, with both ends of the trachea piece ligated with 4˜0 silk suture, and then placed into a thermostatic bath containing 5 ml of K—H solution (pH 7.4) at 37° C., with the mixture gas of 5% CO2 and 95% O2 continuously purged. A muscle tension transducer was connected to the upper end so as to apply 1.0 g of resting tension to the specimen, the change of the tension was recorded, the culture solution was replaced every 20 min, and the test was started after being balanced for 60 min.
Administration method: After the trachea piece was stabilized, 3×10^−6 mol/L of CCh was added into a bath, and after the contractile tension of the trachea piece reached a peak level, the example compounds, ipratropium bromide and tiotropium bromide were added into a Magnus bath by a cumulative dosing regimen with a dosage of 10^−9˜10^−5 mol, respectively, and the diastolic condition of the trachea piece was observed: if no response occurred (below the threshold concentration), a next dosage was continued to be added in sequence; if response occurred, after it reached a diastolic plateau, a next dosage was further added. The above operation was repeated until the contractile curve reached the minimum value. Finally, 10^−6 mol/L of isoprenaline was added so that the maximum relaxation would be reached and the curve was recorded.
Statistical approach: The result was expressed as mean ±standard deviation, and counted by Sigma Stat statistical package. The data was analyzed by using variance analysis, the comparison among means of a plurality of specimen was performed by using Student-Newman-Keuls(SNK) test; statistical significant level α=0.05 (bilateral).
Compounds shown in Table 5 were further prepared according to the present invention, and their IC50 […] of resistance to the contraction of tracheal smooth muscle from guinea pigs induced by a concentration of 3×10^−6 mol/L of CCh was determined.

[2] = test system: tracheal smooth muscle from guinea pigs (contraction induced by 3 × 10^−6 mol/L of CCh); assay: as above; format: cell-based, guinea pig; remark: listed apart in the source
[3] = Cavia porcellus, read-out: IC50 (μM), antagonism in vitro against the contraction of the tracheal smooth muscle induced by CCh, 3 × 10^−6 mol/L of CCh, cumulative dosing
[4] = Cavia porcellus, read-out: Resistance to the contraction of smooth muscle from guinea pigs in vitro, IC50 (μM), 3 × 10^−6 mol/L of CCh, Table 5
[5] = read-out: IC50 (μM), antagonism in vitro against the contraction of the tracheal smooth muscle induced by CCh, 3 × 10^−6 mol/L of CCh, cumulative dosing
[6] = 3 × 10^−6 mol/L of CCh, cumulative dosing, read-out: IC50 (μM), antagonism in vitro against the contraction of the tracheal smooth muscle induced by CCh
[7] = Cavia porcellus, 3 × 10^−6 mol/L of CCh, Table 5, read-out: Resistance to the contraction of smooth muscle from guinea pigs in vitro, IC50

| Compound | Onset time [2] [min] | Time for eliminating inhibition effect (min) [2] | IC50 [1, 4] [µM] | also measured |
| --- | --- | --- | --- | --- |
| O[C@](CO[C@H]1C[N+]2(CCCOc3ccccc3)CCC1CC2)(c1ccccc1)C1CCCCC1.[Br-] [Example 8, (2S,3S)-3-[(2-cyclohexyl-2-hydroxyl-2-phenyl)ethoxyl]-1-(3-phenoxypropyl)-1-azabicyclo[2,2,2]octane bromide] | 6.72 | more than 300 min | – | IC50 [1, 3]: 2.35 µM |
| CC(=O)OC(COC1C[N+]2(CCCOc3ccccc3)CCC1CC2)(c1ccccc1)C1CCCC1 (stereo not drawn) [Example 36] | – | – | 0.068 | – |
| OC(COC1C[N+]2(CCCOc3ccccc3)CCC1CC2)(c1ccccc1)C1CCCC1 (stereo not drawn) [Example 48] | – | – | – | IC50 ([1]; read-out: Resistance to the contraction of smooth muscle from guinea pigs in vitro, IC50, 3 × 10^−6 mol/L of CCh, Table 5): 1.18 µM |
| OC(CCCCCCCOC1C[N+]2(CCCOc3ccccc3)CCC1CC2)(c1ccsc1)C1CCCC1 (stereo not drawn) [Example 38] | – | – | 0.0317 | – |
| OC(CO[C@@H]1C[N+]2(COc3ccccc3)CCC1CC2)(c1ccccc1)C1CCCC1.[Br-] (stereo partly drawn) [Example 27, (2R,3R)-3-[(2-cyclopentyl-2-hydroxyl-2-phenyl)ethoxyl]-1-phenoxymethyl-1-azabicyclo[2,2,2]octane bromide] | 5.89 | more than 300 min | – | IC50 [1, 3]: 0.0363 µM |
| OC(COC1C[N+]2(CCCOc3ccccc3)CCC1CC2)(CC1CCCC1)c1ccccc1 (stereo not drawn) [Example 53] | – | – | 2.17 | – |
| OC(CO[C@H]1C[N+]2(CCCOc3ccccc3)CCC1CC2)(c1ccccc1)C1CCCC1.[Br-] (stereo partly drawn) [Example 2, (2S,3S)-3-[(2-cyclopentyl-2-hydroxyl-2-phenyl)ethoxyl]-1-(3-phenoxypropyl)-1-azabicyclo[2,2,2]octane bromide] | 6.53 | more than 300 min | – | IC50 [1, 5]: 2.85 µM |
| CC1CCCC1C(O)(COC1C[N+]2(CCCOc3ccccc3)CCC1CC2)c1ccccc1 (stereo not drawn) [Example 49] | – | – | 0.045 | – |
| OC(COC1C[N+]2(C3(COc4ccccc4)CCCC3)CCC1CC2)(c1ccccc1)C1CCCC1 (stereo not drawn) [Example 45] | – | – | 0.512 | – |
| OC(CO[C@H]1C[N+]2(CCCOc3ccccc3)CCC1CC2)(c1ccccc1)C1CCC1 (stereo partly drawn) [Example 18, (2R,3R),(2S,3S)-3-[(2-cyclobutyl-2-hydroxyl-2-phenyl)ethoxyl]-1-(3-phenoxypropyl)-1-azabicyclo[2,2,2]octane bromide] | 6.92 | more than 300 min | – | IC50 [1, 6]: 0.156 µM |
| (2R,3R),(2S,3S)-3-[(2-cyclohexyl-2-hydroxyl-2-phenyl)ethoxyl]-1-(3-phenoxypropyl)-1-azabicyclo[2,2,2]octane bromide [Example 12] | 7.13 | more than 300 min | – | IC50 [1, 6]: 0.251 µM |
| CCCCC(O)(COC1C[N+]2(CCCOc3ccccc3)CCC1CC2)c1ccccc1 (stereo not drawn) [Example 47] | – | – | 0.506 | – |
| C[N+]1(C)[C@@H]2C[C@@H](OC(=O)C(O)(c3cccs3)c3cccs3)C[C@H]1[C@@H]1O[C@@H]12 [tiotropium bromide, reference compound] | 30.37 | more than 300 min | – | IC50 [1, 3]: 0.0142 µM |
| O[C@](COC1C[N+]2(CCCOc3ccccc3)CCC1CC2)(c1ccccc1)C1CCCCC1.[Br-] (stereo partly drawn) [Example 9, (2S,3R)-3-[(2-cyclohexyl-2-hydroxyl-2-phenyl)ethoxyl]-1-(3-phenoxypropyl)-1-azabicyclo[2,2,2]octane bromide] | 6.13 | more than 300 min | – | IC50 [1, 3]: 0.758 µM |
| OC(CO[C@@H]1C[N+]2(CCCOc3ccccc3)CCC1CC2)(c1ccccc1)C1CC1.[Br-] (stereo partly drawn) [Example 22, (2R,3R)-3-[(2-cyclopropyl-2-hydroxyl-2-phenyl)ethoxyl]-1-(3-phenoxypropyl)-1-azabicyclo[2,2,2]octane bromide] | 6.45 | more than 300 min | – | IC50 [1, 5]: 0.373 µM |
| COC(COC1C[N+]2(CCCOc3ccccc3)CCC1CC2)(c1cccnc1)C1CCCC1.[Br-] [Example 33, (2R,3R)-3-[(2-cyclopentyl-2-methoxyl-2-(3-pyridyl))ethoxyl]-1-(3-phenoxypropyl)-1-azabicyclo[2,2,2]octane bromide] | 6.17 | more than 300 min | – | IC50 [1, 3]: 0.139 µM |
| OC(COC1C[N+]2(CCCOc3ccccc3)CCC1CC2)(c1ccccc1)C1CCCC1 (stereo not drawn) [Example 54] | – | – | – | IC50 [1, 7]: 0.0376 µM |

| Compound | Onset time [2] [min] | Time for eliminating inhibition effect (min) [2] | IC50 [1, 4] [µM] | also measured |
| --- | --- | --- | --- | --- |
| OC(CO[C@@H]1C[N+]2(CCCOc3ccccc3)CCC1CC2)(c1ccccc1)C1CC1.[Br-] (stereo partly drawn) [Example 21, (2S,3R)-3-[(2-cyclopropyl-2-hydroxyl-2-phenyl)ethoxyl]-1-(3-phenoxypropyl)-1-azabicyclo[2,2,2]octane bromide] | 6.79 | more than 300 min | – | IC50 [1, 5]: 1.35 µM |
| COc1ccc(OCCC[N+]23CCC(CC2)C(OCC(O)(c2ccccc2)C2CCCC2)C3)cc1 (stereo not drawn) [Example 42] | – | – | 0.078 | – |
| OC(CO[C@H]1C[N+]2(CCCOc3ccccc3)CCC1CC2)(c1ccccc1)C1CC1.[Br-] (stereo partly drawn) [Example 20, (2S,3S)-3-[(2-cyclopropyl-2-hydroxyl-2-phenyl)ethoxyl]-1-(3-phenoxypropyl)-1-azabicyclo[2,2,2]octane bromide] | 6.32 | more than 300 min | – | IC50 [1, 5]: 2.35 µM |
| OC(CCOC1C[N+]2(CCCOc3ccccc3)CCC1CC2)(c1ccccc1)C1CCCC1 (stereo not drawn) [Example 35] | – | – | 0.102 | – |
| OC(COC1C[N+]2(C3(COc4ccccc4)C=CC=C3)CCC1CC2)(c1ccccc1)C1CCCC1 (stereo not drawn) [Example 46] | – | – | 1.23 | – |
| COC1C[N+]2(CCCOc3ccccc3)CCC1C(OCC(O)(c1ccccc1)C1CCCC1)C2 (stereo not drawn) [Example 39] | – | – | 0.045 | – |
| OC(COC1C[N+]2(CCCOc3ccccc3)CCC1CC2)(c1ccccc1)C1CCCC1 (stereo not drawn) [Example 55] | – | – | – | IC50 [1, 7]: 0.0359 µM |
| CC(Oc1ccccc1)[N+]12CCC(CC1)C(OCC(O)(c1ccccc1)C1CCCC1)C2 (stereo not drawn) [Example 43] | – | – | 0.0615 | – |
| OC(CO[C@@H]1C[N+]2(CCCOc3ccccc3)CCC1CC2)(c1ccccc1)C1CCCC1.[Br-] (stereo partly drawn) [Example 3, (2S,3R)-3-[(2-cyclopentyl-2-hydroxyl-2-phenyl)ethoxyl]-1-(3-phenoxypropyl)-1-azabicyclo[2,2,2]octane bromide] | 6.54 | more than 300 min | – | IC50 [1, 5]: 0.852 µM |
| OC(CO[C@H]1C[N+]2(CCCOc3ccccc3)CCC1CC2)(c1ccccc1)C1CC1 (stereo partly drawn) [Example 19, (2R,3S)-3-[(2-cyclopropyl-2-hydroxyl-2-phenyl)ethoxyl]-1-(3-phenoxypropyl)-1-azabicyclo[2,2,2]octane bromide] | 6.68 | more than 300 min | – | IC50 ([1]; Cavia porcellus, 3 × 10^−6 mol/L of CCh, cumulative dosing, read-out: IC50 (μM), antagonism in vitro against the contraction of the tracheal smooth muscle induced by CCh): 1.76 µM |
| COc1cccc2cccc(C(O)(COC3C[N+]4(CCCOc5ccccc5)CCC3CC4)C3CCCC3)c12 (stereo not drawn) [Example 34] | – | – | 0.654 | – |
| OC(COC1C[N+]2(CCCOc3ccccc3)CCC1CC2)(c1cccs1)C1CCCC1 (stereo not drawn) [Example 37] | – | – | 0.0783 | – |
| CC(C)(Oc1ccccc1)[N+]12CCC(CC1)C(OCC(O)(c1ccccc1)C1CCCC1)C2 (stereo not drawn) [Example 44] | – | – | 0.147 | – |
| CC1=CC=CC1C(O)(COC1C[N+]2(CCCOc3ccccc3)CCC1CC2)c1ccccc1 (stereo not drawn) [Example 50] | – | – | 0.413 | – |
| Cc1ccc(OCCC[N+]23CCC(CC2)C(OCC(O)(c2ccccc2)C2CCCC2)C3)cc1 (stereo not drawn) [Example 41] | – | – | 0.0562 | – |
| ClC(COC1C[N+]2(CCCOc3ccccc3)CCC1CC2)(c1ccccc1)C1CCCC1 (stereo not drawn) [Example 40] | – | – | 0.805 | – |
| COC1C(OCC(O)(c2ccccc2)C2CCCC2)C2CC[N+]1(CCCOc1ccccc1)CC2 (stereo not drawn) [Example 52] | – | – | 0.513 | – |

Reference: patent publication US9751875B2, “Quinine compounds, and optical isomers, preparation method and medical use thereof” (BEIJING FSWELCOME TECHNOLOGY DEVELOPMENT CO., LTD., priority 2013, dated 2017)
